Laboratory results taken from patent US20230356105A1, “TETRAAZADODECANE BASED CHELATING AGENTS FOR SEPARATION OF RARE EARTH ELEMENTS AND METHOD THEREFOR” (Ustav Organicke Chemie a Biochemie AV CR V.V.I., priority 2020, published 2023).
Several values for one entry are separate records, joined by “and”; a condition that tells them apart may be missing. Identical values can stand only once. Like-named read-outs stand apart in the source and are kept apart here.

Tests used:
Assay type in all cases: physicochemical
[1] = Separation of industrially relevant binary mixtures by precipitation using L1, L2 and L3 (Example 10); conditions: supernatant
Experimental: Analogous to Example 7), three sets of reaction mixtures with two metals and either compound L1, L2, or L3 were prepared in a 96-well plate with the following differences: each well was equipped with one PTFE-coated magnetic stir bar, the well plate was sealed with a silicon cover, and the reaction mixtures were stirred on a magnetic stirrer for 2 days at room temperature. Analogous to Example 7), the well plate was then centrifuged and concentrations of the metals were determined using ICP-OES. […] It is evident from the results that certain degrees of enrichment are achieved for very different combinations of metals, and that ligands L1, L2, and L3 have different selectivities for given combinations of metals.

[2] = Separation of Y/Tb mixture by repeated precipitation using L2 (Example 14); conditions: for Precipitate concentration [mM] Tb / Precipitate concentration [mM] Y: dissolved to 200 μL
Experimental: The experiment was conducted according to Example 11) with 9 identical reaction mixtures containing Y, Tb, and compound L2. The experimental procedure was identical to that of Example 11). The resulting absolute concentrations of both metals in the supernatants and precipitates, as well as calculated values of separation factor Y/Tb according to the formula from Example 11), are summarized in Table 8. The average separation factor value was 3.34.

[3] = Separation of Tb/Lu mixture by precipitation using L4 (Example 16); conditions: for Precipitate concentration [mM] Lu / Precipitate concentration [mM] Tb: dissolved to 150 μL
Experimental: The experiment was conducted according to Example 24, with 3 identical reaction mixtures containing Tb, Lu, and compound L4. The experimental procedure was identical to that of Example 24 with the difference being that the dissolution of the precipitate in 100 μL, 1 M HCl was achieved within several minutes. The resulting absolute concentrations of both metals in the supernatants and precipitates, as well as calculated values of the separation factor […] according to formula from Example 11), are summarized in Table 10. […] The average separation factor value was 27.

[4] = Separation of binary mixture of rare-earth metals by precipitation using L6 (Example 9); conditions: supernatant; for [mM] M1: with Nd
[5] = Use of additives to improve separation of Nd/Dy mixture by precipitation with L5 (Example 18); conditions: 11 mM L5
How it was run: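 Mixtures held 5 mM NdCl3, 5 mM DyCl3 and 500 mM MOPS pH 7 with L5, plus additives at variable concentration adjusted to pH 7. Stirred 18 h in sealed cuvettes, then centrifuged; precipitate redissolved in 1 M HCl. Nd and Dy measured in supernatant and precipitate by ICP-OES.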

[6] = Removal of additive from remaining solution after precipitation by ultrafiltration (Example 25); conditions: initial [additive] 76 mM
[7] = group A, 1st precipitation, mean
[8] = group B, 2nd precipitation, mean

SMILES: O=C(O)CN1CCNCCN(CC(=O)O)CCN(Cc2cc([N+](=O)[O-])ccc2O)CC1 [L2, 2,2′(4-(2-hydroxy-5-nitrobenzyl)-1,4,7,10-tetraazacyclododecane-1,7-diyl)Diacetic Acid]
- [mM] M1 ([1]; M1/M2=Eu/Y): 1.363 mM
- [mM] M2 ([1]; M1/M2=Eu/Y): 2.814 mM
- [mM] M1 ([1]; M1/M2=La/Ce): 0.175 mM
- [mM] M2 ([1]; M1/M2=La/Ce): 0.158 mM
- [mM] M1 ([1]; M1/M2=Nd/Ce): 0.425 mM
- [mM] M2 ([1]; M1/M2=Nd/Ce): 0.779 mM
- [mM] M1 ([1]; M1/M2=Nd/Dy): 1.757 mM
- [mM] M2 ([1]; M1/M2=Nd/Dy): 1.970 mM
- [mM] M1 ([1]; M1/M2=Nd/La): 0.263 mM
- [mM] M2 ([1]; M1/M2=Nd/La): 0.128 mM
- [mM] M1 ([1]; M1/M2=Nd/Pr): 2.303 mM
- [mM] M2 ([1]; M1/M2=Nd/Pr): 2.352 mM
- [mM] M1 ([1]; M1/M2=Nd/Tb): 1.532 mM
- [mM] M2 ([1]; M1/M2=Nd/Tb): 1.438 mM
- [mM] M1 ([1]; M1/M2=Pr/Ce): 0.162 mM
- [mM] M2 ([1]; M1/M2=Pr/Ce): 0.171 mM
- [mM] M1 ([1]; M1/M2=Pr/Dy): 2.417 mM
- [mM] M2 ([1]; M1/M2=Pr/Dy): 2.422 mM
- [mM] M1 ([1]; M1/M2=Pr/La): 0.172 mM
- [mM] M2 ([1]; M1/M2=Pr/La): 0.163 mM
- [mM] M1 ([1]; M1/M2=Tb/Dy): 1.054 mM
- [mM] M2 ([1]; M1/M2=Tb/Dy): 2.708 mM
- [mM] M1 ([1]; M1/M2=Tb/Eu): 1.182 mM
- [mM] M2 ([1]; M1/M2=Tb/Eu): 0.956 mM
- [mM] M1 ([1]; M1/M2=Tb/Pr): 1.945 mM
- [mM] M2 ([1]; M1/M2=Tb/Pr): 2.156 mM
- [mM] M1 ([1]; M1/M2=Tb/Y): 1.615 mM
- [mM] M2 ([1]; M1/M2=Tb/Y): 2.812 mM
- Supernatant concentration [mM] Tb ([2]; group A, 1st precipitation): 1.70 mM and 1.85 mM and 1.74 mM
- Supernatant concentration [mM] Y ([2]; group A, 1st precipitation): 4.25 mM and 4.36 mM and 4.12 mM
- Precipitate concentration [mM] Tb ([2]; group A, 1st precipitation): 8.05 mM and 7.82 mM and 7.70 mM
- Precipitate concentration [mM] Y ([2]; group A, 1st precipitation): 5.45 mM and 5.23 mM and 5.52 mM
- Precipitate concentration [mM] Tb [2, 7]: 7.86 mM
- Precipitate concentration [mM] Y [2, 7]: 5.40 mM
- Supernatant concentration [mM] Tb [2, 7]: 1.76 mM
- Supernatant concentration [mM] Y [2, 7]: 4.24 mM
- Supernatant concentration [mM] Tb ([2]; group B, 2nd precipitation): 0.79 mM and 1.15 mM and 0.97 mM
- Supernatant concentration [mM] Y ([2]; group B, 2nd precipitation): 1.42 mM and 1.52 mM and 1.48 mM
- Precipitate concentration [mM] Tb ([2]; group B, 2nd precipitation): 6.95 mM and 5.71 mM and 6.60 mM
- Precipitate concentration [mM] Y ([2]; group B, 2nd precipitation): 3.87 mM and 2.86 mM and 3.57 mM
- Precipitate concentration [mM] Tb [2, 8]: 6.42 mM
- Precipitate concentration [mM] Y [2, 8]: 3.43 mM
- Supernatant concentration [mM] Y [2, 8]: 1.47 mM

SMILES: O=C(O)CN1CCN(CC(=O)O)CCN(Cc2ccc3ccccc3c2)CCN(CC(=O)O)CC1 [L4, 2,2′,2″-(10-(naphthalene-2-ylmethyl)-1,4,7,10-tetraazacyklododekane-1,4,7-triyl)triacetic acid]
- Supernatant concentration [mM] Lu [3]: 4.26 mM and 4.07 mM and 4.18 mM
- Supernatant concentration [mM] Tb [3]: 1.08 mM and 0.93 mM and 1.19 mM
- Precipitate concentration [mM] Lu [3]: 0.51 mM and 0.61 mM and 0.47 mM
- Precipitate concentration [mM] Tb [3]: 3.74 mM and 3.73 mM and 3.28 mM
- Precipitate concentration [mM] Lu ([3]; mean): 0.53 mM
- Precipitate concentration [mM] Tb ([3]; mean): 3.59 mM
- Supernatant concentration [mM] Lu ([3]; mean): 4.17 mM
- Supernatant concentration [mM] Tb ([3]; mean): 1.07 mM

SMILES: O=C(O)CN1CCN(CC(=O)O)CCN(Cc2ccc(-c3ccccc3)cc2)CCN(CC(=O)O)CC1 [L6, 2,2′,2″-(10-([1,1′-biphenyl]-4-ylmethyl)-1,4,7,10-tetraazacyclododecane-1,4,7-triyl)triacetic acid]
- [mM] M1 ([4]; M1=Ce): 0.596 mM
- [mM] Nd ([4]; M1=Ce): 0.556 mM
- [mM] M1 ([4]; M1=Dy): 0.459 mM
- [mM] Nd ([4]; M1=Dy): 0.135 mM
- [mM] M1 ([4]; M1=Er): 2.027 mM
- [mM] Nd ([4]; M1=Er): 0.702 mM
- [mM] M1 ([4]; M1=Eu): 0.711 mM
- [mM] Nd ([4]; M1=Eu): 0.566 mM
- [mM] M1 ([4]; M1=Gd): 0.195 mM
- [mM] Nd ([4]; M1=Gd): 0.166 mM
- [mM] M1 ([4]; M1=Ho): 1.943 mM
- [mM] Nd ([4]; M1=Ho): 0.618 mM
- [mM] M1 ([4]; M1=La): 0.620 mM
- [mM] Nd ([4]; M1=La): 0.606 mM
- [mM] M1 ([4]; M1=Lu): 3.231 mM
- [mM] Nd ([4]; M1=Lu): 0.841 mM
- [mM] M1 ([4]; M1=Nd): 0.496 mM
- [mM] Nd ([4]; M1=Nd): 0.496 mM
- [mM] M1 ([4]; M1=Pr): 0.524 mM
- [mM] Nd ([4]; M1=Pr): 0.559 mM
- [mM] M1 ([4]; M1=Sc): 2.414 mM
- [mM] Nd ([4]; M1=Sc): 0.594 mM
- [mM] M1 ([4]; M1=Sm): 0.541 mM
- [mM] Nd ([4]; M1=Sm): 0.512 mM
- [mM] M1 ([4]; M1=Tb): 0.428 mM
- [mM] Nd ([4]; M1=Tb): 0.178 mM
- [mM] M1 ([4]; M1=Tm): 2.914 mM
- [mM] Nd ([4]; M1=Tm): 0.748 mM
- [mM] M1 ([4]; M1=Y): 1.592 mM
- [mM] Nd ([4]; M1=Y): 1.463 mM
- [mM] M1 ([4]; M1=Yb): 2.243 mM
- [mM] Nd ([4]; M1=Yb): 0.495 mM

SMILES: CC(=O)O [acetate]
- Precipitate concentration [mM] Dy ([5]; additive 50 mM): 2.43 mM
- Precipitate concentration [mM] Nd ([5]; additive 50 mM): 4.97 mM
- Supernatant concentration [mM] Dy ([5]; additive 50 mM): 3.05 mM
- Supernatant concentration [mM] Nd ([5]; additive 50 mM): 0.33 mM
- Precipitate concentration [mM] Dy ([5]; additive 100 mM): 1.74 mM
- Precipitate concentration [mM] Nd ([5]; additive 100 mM): 4.85 mM
- Supernatant concentration [mM] Dy ([5]; additive 100 mM): 3.74 mM
- Supernatant concentration [mM] Nd ([5]; additive 100 mM): 0.30 mM
- Precipitate concentration [mM] Dy ([5]; additive 250 mM): 1.05 mM
- Precipitate concentration [mM] Nd ([5]; additive 250 mM): 4.04 mM
- Supernatant concentration [mM] Dy ([5]; additive 250 mM): 4.37 mM
- Supernatant concentration [mM] Nd ([5]; additive 250 mM): 1.17 mM
- Precipitate concentration [mM] Dy ([5]; additive 500 mM): 0.49 mM
- Precipitate concentration [mM] Nd ([5]; additive 500 mM): 0.52 mM
- Supernatant concentration [mM] Dy ([5]; additive 500 mM): 4.69 mM
- Supernatant concentration [mM] Nd ([5]; additive 500 mM): 4.62 mM
- % of initial [additive] in filtrate [6]: 83%

SMILES: O=C(O)c1ccccc1 [benzoic acid]
- Precipitate concentration [mM] Dy ([5]; additive 20 mM): 3.83 mM
- Precipitate concentration [mM] Nd ([5]; additive 20 mM): 4.94 mM
- Supernatant concentration [mM] Dy ([5]; additive 20 mM): 1.09 mM
- Supernatant concentration [mM] Nd ([5]; additive 20 mM): 0.13 mM
- Precipitate concentration [mM] Dy ([5]; additive 50 mM): 1.81 mM
- Precipitate concentration [mM] Nd ([5]; additive 50 mM): 4.66 mM
- Supernatant concentration [mM] Dy ([5]; additive 50 mM): 2.69 mM
- Supernatant concentration [mM] Nd ([5]; additive 50 mM): 0.10 mM
- Precipitate concentration [mM] Dy ([5]; additive 100 mM): 0.97 mM
- Precipitate concentration [mM] Nd ([5]; additive 100 mM): 4.60 mM
- Supernatant concentration [mM] Dy ([5]; additive 100 mM): 4.03 mM
- Supernatant concentration [mM] Nd ([5]; additive 100 mM): 0.49 mM
- Precipitate concentration [mM] Dy ([5]; additive 150 mM): 0.68 mM
- Precipitate concentration [mM] Nd ([5]; additive 150 mM): 3.96 mM
- Supernatant concentration [mM] Dy ([5]; additive 150 mM): 4.34 mM
- Supernatant concentration [mM] Nd ([5]; additive 150 mM): 1.03 mM
- Precipitate concentration [mM] Dy ([5]; additive 200 mM): 0.53 mM
- Precipitate concentration [mM] Nd ([5]; additive 200 mM): 1.65 mM
- Supernatant concentration [mM] Dy ([5]; additive 200 mM): 4.20 mM
- Supernatant concentration [mM] Nd ([5]; additive 200 mM): 2.89 mM
- Precipitate concentration [mM] Dy ([5]; additive 250 mM): 0 mM
- Precipitate concentration [mM] Nd ([5]; additive 250 mM): 0 mM
- Supernatant concentration [mM] Dy ([5]; additive 250 mM): 5 mM
- Supernatant concentration [mM] Nd ([5]; additive 250 mM): 5 mM
- % of initial [additive] in filtrate [6]: 43%
